{
  "source": "patent US20100197584A1",
  "about": "“USE OF CURCUMIN TO BLOCK BRAIN TUMOR FORMATION IN MICE” (Research Foundations of the City University of- New York, priority 2007, published 2010)",
  "key": {"[1]": {"system": "B16F10 (mouse melanoma) cells", "assay": "Cell viability assay using MTT, B16F10", "type": "cell-based", "settings": "25 μM and 50 μM, 48 h or 96 h, versus control cells (FIG. 6a)", "experimental": "Cells. B16F10 (mouse melanoma), GL261 (mouse glioma), HOG (human oligodendroglioma), A549 (human lung cancer), and N18 (mouse neuroblastoma) cells were cultured separately in DMEM containing 10% (v/v) fetal bovine serum and 1% (v/v) penicillin-streptomycin (PS) and allowed to grow to 40% confluence in a 96-well plate.\nCurcumin Treatment. Two hours before drug treatment, the medium in each well was replaced with 200 μl Neurobasal medium supplemented with 2% (v/v) B27 and 1% (v/v) PS (Drug-treatment Medium). A stock solution (40 mM) of curcumin was prepared in sterile dimethyl sulfoxide (DMSO) (Example 1). Through serial dilution of each stock solution in Drug-treatment Medium, the following concentrations were obtained: 20 μM and 50 μM (for caspase 3/7 assays) or 25 μM and 50 μM (for MTT assays). […] Additionally, the background absorbance was determined from parallel wells containing only the Drug-treatment Medium plus a particular concentration of the drug (no cells).\nCell Viability Assay Using MTT (3-(4,5-Dimethylthiazolyl-2)-2,5-Diphenyltetrazolium Bromide). […] Absorbance was measured at 570 nm using a 96-well multi scanner auto-reader with the extraction buffer used as blank. For curcumin samples, the absorbance obtained from the corresponding curcumin plus medium samples was subtracted."}, "[2]": {"system": "B16F10 mouse melanoma cells", "assay": "Brain tumor formation (B16F10 cells injected into right front brain), tail vein curcumin", "type": "in vivo, C57BL mouse", "experimental": "Generation of Tumors. The mice were given food and water ad libitum and subjected to 12 hour dark/12 hour light cycles. To generate brain tumors in mice, B16F10 mouse melanoma cells or GL261 mouse glioma cells (1000 cells in 5 μl PBS per C57BL mouse) were injected into the right front brain [coordinates: with respect to the Bregma (in mm) AP=2.5; L=−1.1; D=1.5] at the rate of 1 μl per minute using a stereotaxic set-up (KDS Model 310plus infusion-withdrawal syringe pump) (Paxinos, G., and Franklin, K. B. J., The mouse brain in stereotaxic coordinates. 2nd ed. 2001, New York: Academic Press). Before the cell injection, the mouse was anesthetized by injecting (sc) xylazine (10 mg/Kg) and ketamine (100 mg/Kg), the head was shaved, and then the head was immobilized on a Stoelting sterotaxic frame. The mouse was determined to be in deep anesthesia by checking for regular, relaxed respiration and the lack of response to tail/toe pinch before its head was immobilized. The head was cleaned with 70% ethanol and then, using a sterile scalpel, a midline incision was made and subcutaneous muscle and fascia retracted to expose the skull. A hole was made in the skull with a dental drill and the cells injected as described above using a Hamilton syringe fitted to the syringe pump. Under the described condition of anesthesia, the mouse remains unconscious for about 90 min. The total time taken for immobilization of the mouse, exposure of the skull, and injection was about 30 min. Thus, the total time required from the injection of anesthetics to the completion of surgery was less than one hour. After the injection, the hole in the skull was sealed with sterile bone wax and the skin and muscle placed back in place with appropriate 7-mm stainless steel clips (Reflex Skin closure system; Cellpoint Scientific). For wound healing, a topical antibiotic (Triple Antibiotic, containing Polymyxin B, Bacitracin, and Neomycin) was applied and for post-operative care the animal was kept in a warm blanket at 35-37° C. taking precautions to avoid thermal injury. On the first day after surgery (day 2), a sterile, 37° C. solution of physiologic saline was administered (IP) at the dose of 1 ml/100 g body weight. The animals were then caged individually with access to food and water and kept under close monitoring. The mice also received acetaminophen (Tylenol syrup) 1 mg/ml in drinking water daily until they returned to complete normalcy in terms of both behavior and appearance (body weight; reduced locomotion, vocalization, lack of grooming, wound scratching; and signs inflammation at the surgical site).\nCurcumin Treatment. The control mice received, aseptically, the carrier (3% DMSO in 200 μl PBS) daily from the next day (day 2), through the tail vein after placing the mouse in a restraining cage without anesthetics. Other mice similarly received 667 μM curcumin in 200 μl of PBS containing 3% DMSO daily from the next day (day 2) for 18 days (through day 19) through the tail vein. Other mice received the same curcumin solution daily from day 4, day 6, day 8 or day 10. One mouse (designated Mouse 2) received a single dose of curcumin (5 μl of 667 μM solution) five minutes after injection of B16F10 cells into the brain, using the same stereotaxic set-up.\nMonitoring and Sample Preparation. The effects of brain tumor on movement generally appeared in about two to three weeks. The mice were monitored for disorders in movement using an open field VIDEO monitoring set up (10 min per mouse). Blood was collected from the saphenous vein to test for markers for cancer and cell and organ damage. Additionally, MRI was performed on the mice to monitor the growth and progression of brain tumors. […]"}, "cyclin D1": {"system": "cyclin D1", "assay": "Western blot of B16F10 cells, cyclin D1", "type": "cell-based, mouse", "settings": "50 μM", "experimental": "B16F10 cells were cultured in 10-cm plates and then treated in duplicate with carrier or curcumin (50 μM). Following treatment for appropriate time periods, the cells were washed with PBS, lysed in RIPA buffer (PBS containing 1% Nonidet P40, 0.5% sodium deoxycholate, 0.1% SDS, 0.5 mM Na3VO4 plus freshly added PMSF and protease inhibitor cocktail; Boeringer-Roche), and then 20 μg of lysate protein (per lane) were analyzed by SDS-10% PAGE and Western blot analysis. Antibody concentrations used were: anti-phospho-NF-κB (1:1000) (Santa Cruz Biotechnology, Santa Cruz, Calif.), anti-phospho-Akt (1:5000) (Cell Signaling, CA), anti-cyclin D1 (1:1000) (Cell Signaling, CA), anti-BclXL (1:500) (Santa Cruz Biotechnology), anti-VEGF (1:500) (Santa Cruz Biotechnology), and anti-β-actin (1:1000) (Sigma, St. Louis, Mo.)."}},
  "data": [
    {"compound": "COc1cc(/C=C/C(=O)CC(=O)/C=C/c2ccc(O)c(OC)c2)ccc1O", "note": "[curcumin]", "values": [
      {"measurement": "cell viability (MTT)", "setting": "[1]", "value": "dramatic decrease"},
      {"measurement": "brain tumor formation and morbidity", "setting": "[2]; B16F10 cells in right frontal lobe, 200 μl of 667 μM curcumin daily, tail vein, day 2 to day 19", "value": "blocked"},
      {"measurement": "tissue disintegration (hematoxylin and eosin staining of brain tissue)", "setting": "[2]; curcumin-injected mice (FIG. 8B)", "value": "completely blocked"},
      {"measurement": "movement", "setting": "[2]; daily curcumin injections, day 20", "value": "normal movement"},
      {"measurement": "movement and behavior", "setting": "[2]; daily curcumin injections, days 21, 28, and 39", "value": "normal movement and behavior"},
      {"measurement": "tumors in the right frontal lobe", "setting": "[2]; single dose (5 μl of 667 μM, into brain five minutes after B16F10 cells; Mouse 2)", "value": "Large tumors were observed"},
      {"measurement": "condition of mouse", "setting": "[2]; single dose (5 μl of 667 μM, into brain five minutes after B16F10 cells; Mouse 2), day 21", "value": "hunched up and morbid"},
      {"measurement": "cyclin D1 levels (Western blot)", "setting": "cyclin D1; active cell division (first 48 h)", "value": "decrease"},
      {"measurement": "cyclin D1 inhibition (Western blot)", "setting": "cyclin D1; subsequently, when cell division had slowed down", "value": "not observed"}
    ]}
  ]
}
